Results as given in the supplement of paper PMC10307832.

Experiments:
Experiment in all cases: relative viability (nuclei count vs DMSO), 5 days (fraction); higher = more cells survive
ChaGo-K-1 = system: ChaGo-K-1
Outline: (§1)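 Medians of duplicate plates are given as relative viability. That measure is the nuclei count in treated wells divided by the count in vehicle wells. Counts were taken on 4× images of lung cancer cell lines in 1536-well plates, 5 days after pin-tool dosing the day after seeding with one drug alone or a fixed anchor-drug dose plus five library-drug doses (not always all listed) in √10 steps.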

EKVX = system: EKVX
Outline: as §1

EMC-BAC-2 = system: EMC-BAC-2
Outline: as §1

EPLC-272H = system: EPLC-272H
Outline: as §1

HCC-78 = system: HCC-78
Outline: as §1

HCC-827 = system: HCC-827
Outline: as §1

LCLC-103H = system: LCLC-103H
Outline: as §1

LK-2 = system: LK-2
Outline: as §1

LU99A = system: LU99A
Outline: as §1

LXF-289 = system: LXF-289
Outline: as §1

NCI-H1563 = system: NCI-H1563
Outline: as §1

CCN(CC)CCCCNc1ncc2cc(-c3cc(OC)cc(OC)c3)c(NC(=O)NC(C)(C)C)nc2n1 + C[C@@H](Oc1cc(-c2cnn(C3CCNCC3)c2)cnc1N)c1c(Cl)ccc(F)c1Cl [Crizotinib] (partner 1 µM)
relative viability (ChaGo-K-1; first compound 0.01 µM): 1.24
relative viability (ChaGo-K-1; first compound 0.03162 µM): 1.08
relative viability (ChaGo-K-1; first compound 0.1 µM): 1.09
relative viability (ChaGo-K-1; first compound 0.3162 µM): 1.32
relative viability (ChaGo-K-1; first compound 1 µM): 1.06
relative viability (EKVX; first compound 0.01 µM): 1.21
relative viability (EKVX; first compound 0.03162 µM): 0.924
relative viability (EKVX; first compound 0.1 µM): 1.04
relative viability (EKVX; first compound 0.3162 µM): 0.841
relative viability (EKVX; first compound 1 µM): 0.664
relative viability (EMC-BAC-2; first compound 0.01 µM): 0.851
relative viability (EMC-BAC-2; first compound 0.03162 µM): 0.761
relative viability (EMC-BAC-2; first compound 0.1 µM): 0.85
relative viability (EMC-BAC-2; first compound 0.3162 µM): 0.839
relative viability (EMC-BAC-2; first compound 1 µM): 0.735
relative viability (EPLC-272H; first compound 0.01 µM): 1.23
relative viability (EPLC-272H; first compound 0.1 µM): 1.13
relative viability (EPLC-272H; first compound 0.3162 µM): 1.04
relative viability (EPLC-272H; first compound 1 µM): 0.917
relative viability (HCC-78; first compound 0.03162 µM): 0.318
relative viability (HCC-78; first compound 0.1 µM): 0.347
relative viability (HCC-78; first compound 0.3162 µM): 0.368
relative viability (HCC-78; first compound 1 µM): 0.299
relative viability (HCC-827; first compound 0.01 µM): 0.979
relative viability (HCC-827; first compound 0.03162 µM): 0.958
relative viability (HCC-827; first compound 0.1 µM): 0.968
relative viability (HCC-827; first compound 0.3162 µM): 0.966
relative viability (HCC-827; first compound 1 µM): 0.937
relative viability (LCLC-103H; first compound 0.01 µM): 1.11
relative viability (LCLC-103H; first compound 0.03162 µM): 1.04
relative viability (LCLC-103H; first compound 0.1 µM): 1.07
relative viability (LCLC-103H; first compound 0.3162 µM): 1.05
relative viability (LCLC-103H; first compound 1 µM): 1.05
relative viability (LK-2; first compound 0.01 µM): 0.235
relative viability (LK-2; first compound 0.03162 µM): 0.25
relative viability (LK-2; first compound 0.1 µM): 0.231
relative viability (LK-2; first compound 0.3162 µM): 0.246
relative viability (LK-2; first compound 1 µM): 0.258
relative viability (LU99A; first compound 0.01 µM): 0.547
relative viability (LU99A; first compound 0.03162 µM): 0.63
relative viability (LU99A; first compound 0.1 µM): 0.616
relative viability (LU99A; first compound 0.3162 µM): 0.583
relative viability (LU99A; first compound 1 µM): 0.484
relative viability (LXF-289; first compound 0.01 µM): 0.836
relative viability (LXF-289; first compound 0.03162 µM): 0.817
relative viability (LXF-289; first compound 0.1 µM): 0.916
relative viability (LXF-289; first compound 0.3162 µM): 0.824
relative viability (LXF-289; first compound 1 µM): 0.696
relative viability (NCI-H1563; first compound 0.01 µM): 0.86
relative viability (NCI-H1563; first compound 0.03162 µM): 0.836
relative viability (NCI-H1563; first compound 0.1 µM): 0.816
